Values joined by “and” are separate entries in the source; they are usually repeats but may differ in a detail not shown here. Equal entries are not always repeated. Where two headings read alike, the source gives them in different places.
What was measured:
[1] = system: internal mammary artery (IMA); assay type: cell-based; parameters: Diameter of the conduit, 0 hrs. / Diameter of the conduit, 2 hrs. / Diameter of the conduit, 12 hrs. / Diameter of the conduit, 24 hrs. / Diameter of the conduit, 48 hrs. / Diameter of the conduit, 72 hrs.: unit not given here
[2] = system: radial artery; assay type: cell-based; parameters: Diameter of the conduit, 0 hrs. / Diameter of the conduit, 2 hrs. / Diameter of the conduit, 12 hrs. / Diameter of the conduit, 24 hrs. / Diameter of the conduit, 72 hrs.: unit not given here
[3] = system: saphenous vein; assay type: cell-based; parameters: Diameter of the conduit, 0 hrs. / Diameter of the conduit, 2 hrs. / Diameter of the conduit, 12 hrs. / Diameter of the conduit, 24 hrs. / Diameter of the conduit, 48 hrs. / Diameter of the conduit, 72 hrs.: unit not given here
[4] = topical vasodilators used to overcome vasospasm; cited from earlier work
[5] = IMA, NTG 0.5 micromol/L, verapamil 100 nanomol/L
[6] = Radial, NTG 0.5 micromol/L, verapamil 100 nanomol/L
[7] = Vein, NTG 0.5 micromol/L, verapamil 100 nanomol/L

O=[N+]([O-])OCC(CO[N+](=O)[O-])O[N+](=O)[O-] [NTG, nitroglycerine]
Aug % (maximum increase in diameter at a given time point compared to baseline) [1]: 73% and 50% and 47% | Diameter of the conduit, 0 hrs. [1]: 1.5 and 2.2 and 2.3 | Diameter of the conduit, 2 hrs. [1]: 2.1 and 2.4 and 2.7 | Diameter of the conduit, 12 hrs. [1]: 2.3 and 2.5 and 2.8 | Diameter of the conduit, 24 hrs. [1]: 2.3 and 2.6 | Diameter of the conduit, 48 hrs. [1]: 2.4 and 2.8 and 2.9 | Diameter of the conduit, 72 hrs. [1]: 2.9 and 3.1 and 3.4 | Aug % (maximum increase in diameter at a given time point compared to baseline) [2]: 52% and 44% and 42% | Diameter of the conduit, 0 hrs. [2]: 2.5 and 2.3 and 2.6 | Diameter of the conduit, 2 hrs. [2]: 2.9 and 3.0 and 3.3 | Diameter of the conduit, 12 hrs. [2]: 3.6 and 3.0 and 3.5 | Diameter of the conduit, 24 hrs. [2]: 3.8 and 2.9 and 3.7 | Diameter of the conduit, 48 hrs. [2]: 3.7 | Diameter of the conduit, 72 hrs. [2]: 3.8 and 3.3 and 3.7 | Aug % (maximum increase in diameter at a given time point compared to baseline) [3]: 66% and 67% and 51% | Diameter of the conduit, 0 hrs. [3]: 2.4 and 3.7 and 2.7 | Diameter of the conduit, 2 hrs. [3]: 4.0 and 6.2 | Diameter of the conduit, 12 hrs. [3]: 3.8 and 6.0 and 4.1 | Diameter of the conduit, 24 hrs. [3]: 4.1 and 5.9 and 3.8 | Diameter of the conduit, 48 hrs. [3]: 3.7 and 6.1 and 3.9 | Diameter of the conduit, 72 hrs. [3]: 3.7 and 6.2

COc1ccc(Cc2nccc3cc(OC)c(OC)cc23)cc1OC [papaverine]
increase in free flow [4]: 70%

COc1ccc(CCN(C)CCCC(C#N)(c2ccc(OC)c(OC)c2)C(C)C)cc1OC (stereo not shown) [verapamil]
Diameter of the conduit, 2 hrs. [1, 5]: 2.4 and 2.1 and 2.7 | Diameter of the conduit, 12 hrs. [1, 5]: 2.6 and 2.4 and 2.8 | Diameter of the conduit, 24 hrs. [1, 5]: 2.5 and 2.3 and 2.9 | Diameter of the conduit, 48 hrs. [1, 5]: 3.0 and 2.5 | Diameter of the conduit, 72 hrs. [1, 5]: 2.9 and 2.7 and 3.1 | Aug % (maximum increase in diameter at a given time point compared to baseline) [1, 5]: 61% and 59% and 64% | Diameter of the conduit, 0 hrs. ([1]; IMA, baseline 0 hrs, Kreb's solution 37° C., NTG 0.5 micromol/L, verapamil 100 nanomol/L): 1.8 and 1.7 and 1.9 | Diameter of the conduit, 2 hrs. [2, 6]: 3.5 and 3.9 and 4.1 | Diameter of the conduit, 12 hrs. [2, 6]: 3.5 and 3.9 | Diameter of the conduit, 24 hrs. [2, 6]: 3.8 | Diameter of the conduit, 48 hrs. [2, 6]: 3.6 and 3.8 | Diameter of the conduit, 72 hrs. [2, 6]: 3.6 and 3.9 | Aug % (maximum increase in diameter at a given time point compared to baseline) [2, 6]: 57% and 62% and 52% | Diameter of the conduit, 0 hrs. ([2]; Radial, baseline 0 hrs, Kreb's solution 37° C., NTG 0.5 micromol/L, verapamil 100 nanomol/L): 2.3 and 2.4 and 2.7 | Diameter of the conduit, 2 hrs. [3, 7]: 5.1 and 5.2 and 5.5 | Diameter of the conduit, 12 hrs. [3, 7]: 4.8 and 5.7 and 5.3 | Diameter of the conduit, 24 hrs. [3, 7]: 5.0 and 5.8 and 5.2 | Diameter of the conduit, 48 hrs. [3, 7]: 4.7 and 5.7 and 5.5 | Diameter of the conduit, 72 hrs. [3, 7]: 4.8 and 5.8 and 5.4 | Aug % (maximum increase in diameter at a given time point compared to baseline) [3, 7]: 70% and 65% and 66% | Diameter of the conduit, 0 hrs. ([3]; Vein, baseline 0 hrs, Kreb's solution 37° C., NTG 0.5 micromol/L, verapamil 100 nanomol/L): 3.0 and 3.5 and 3.3
